Measured values: US20100166727A1, “S-Adenosylmethionine And Methylthioadensosine In Chemoprevention And Treatment Of Colon Polyps And Cancer” (UNIVERSITY OF SOUTHERN CALIFORNIA, priority 2007, published 2010)
Entries after “also recorded” stand apart in the source; their conditions may differ.

Tests used:
[1] = tested on: ornithine decarboxylase (ODC); assay: ODC expression by real-time PCR in HT-29 cells; format: cell-based, human; conditions: 6 hrs
[2] = Intestinal SAMe levels in mice given SAMe or MTA in drinking water; conditions: mouse, in vivo
Procedure: Three-month old male C57/B6 mice were fed ad libitum a standard diet (Harland Tekiad irradiated mouse diet 7912, Madison, Wis.), caged individually and had free access to water supplemented with SAMe ([…]), MTA (75 mg/kg/d), phosphate buffered saline (vehicle for SAMe) or DMSO (0.2%, vehicle for MTA) for 6 days. SAMe and MTA were made fresh daily. The amount of water intake, body weight, and animal behavior were closely monitored. After 6 days, animals were sacrificed, intestine was cut open along the longitudinal axis, and mucosa was stripped from the intestine (46). Mucosa was weighed and a portion processed for SAMe measurement as described below, the rest snap frozen for subsequent RNA extraction.
Cellular SAMe and MTA levels were measured (51) and polyamine levels were determined (52).

MAT II = MAT II (Rattus norvegicus, UniProt P18298); conditions: cited from earlier work
MAT II, sequence (P18298 whole entry): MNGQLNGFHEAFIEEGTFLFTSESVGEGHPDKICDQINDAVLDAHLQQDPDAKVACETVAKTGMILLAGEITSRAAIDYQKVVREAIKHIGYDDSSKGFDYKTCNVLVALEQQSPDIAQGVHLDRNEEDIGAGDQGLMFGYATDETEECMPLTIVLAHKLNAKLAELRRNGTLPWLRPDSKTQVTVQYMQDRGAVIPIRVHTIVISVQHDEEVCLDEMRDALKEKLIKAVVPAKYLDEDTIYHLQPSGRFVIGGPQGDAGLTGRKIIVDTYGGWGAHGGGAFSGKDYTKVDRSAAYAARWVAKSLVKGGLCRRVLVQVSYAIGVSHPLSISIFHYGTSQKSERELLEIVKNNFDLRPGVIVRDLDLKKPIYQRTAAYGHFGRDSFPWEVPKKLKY
MAT II, sequence (Q5U2R0 whole entry partner): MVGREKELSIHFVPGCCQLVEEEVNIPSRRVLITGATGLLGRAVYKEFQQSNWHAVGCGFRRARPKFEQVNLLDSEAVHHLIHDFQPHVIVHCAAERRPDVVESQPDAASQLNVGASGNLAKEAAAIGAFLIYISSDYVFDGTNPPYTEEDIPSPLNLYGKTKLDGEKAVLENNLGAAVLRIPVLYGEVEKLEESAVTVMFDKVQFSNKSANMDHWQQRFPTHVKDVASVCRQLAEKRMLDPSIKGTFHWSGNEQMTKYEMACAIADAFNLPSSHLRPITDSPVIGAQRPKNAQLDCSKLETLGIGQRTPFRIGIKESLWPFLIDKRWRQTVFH

MAT I = MAT I (Rattus norvegicus, UniProt P13444); conditions: cited from earlier work
MAT I, sequence (P13444 whole entry): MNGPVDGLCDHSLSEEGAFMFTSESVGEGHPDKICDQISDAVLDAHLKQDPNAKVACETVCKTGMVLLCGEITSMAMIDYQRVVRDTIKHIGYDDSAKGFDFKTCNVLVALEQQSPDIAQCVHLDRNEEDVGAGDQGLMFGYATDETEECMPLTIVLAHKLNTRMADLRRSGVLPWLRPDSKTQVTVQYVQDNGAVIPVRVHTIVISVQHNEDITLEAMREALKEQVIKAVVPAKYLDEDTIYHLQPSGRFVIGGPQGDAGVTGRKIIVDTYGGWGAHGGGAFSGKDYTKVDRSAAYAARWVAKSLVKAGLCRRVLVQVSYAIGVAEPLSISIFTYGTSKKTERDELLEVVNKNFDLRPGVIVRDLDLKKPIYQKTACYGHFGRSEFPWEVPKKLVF

MAT2A [3] = assay: MAT2A mRNA levels by real-time PCR in HT-29 cells; format: cell-based, human; conditions: for MAT2A expression: 6 hr treatment, HT-29 cells
Procedure: HT-29 and RKO cells were obtained from the Cell Culture Core of the USC Liver Disease Research Center and grown according to instructions provided by the American Type Culture Collection (ATCC, Rockville, Md.). Prior to treatment with growth factors, SAMe or MTA, medium was changed to 0.1% FBS overnight.
RNA interference (RNAi) experiments were performed using Lipofectamine RNAiMax (Invitrogen) according to the manufacturer's instructions. Small interfering RNA (siRNA) oligonucleotides for MAT2A and scrambled siRNA were synthesized by the USC Norris Comprehensive Cancer Center Microchemical Core Laboratory, and annealed to form duplexes. Stealth RNAi for MAT2A and Stealth RNAi negative control duplexes were synthesized by Invitrogen (Carlsbad, Calif.). The following siRNA sequences were used: si-MAT2A #1, 5′-[…]-3′ (sense) and 5′-[…]-3′ (antisense); si-control with scrambled sequence (negative control siRNA having no perfect matches to known human genes), 5′-[…]dTdT-3′ (sense) and 5% […]dTdT-3′ (antisense); stealth RNAi-MAT2A #5, 5′-[…]-3′ (sense) and 5′-[…]-3′ (antisense). […]
(§1) Total RNA was isolated by the EZgeno total RNA isolation kit (Genemega, San Giego, Calif.), and subjected to reverse transcription (RT) by using M-MLV Reverse transcriptase (Invitrogen). 2 μl of RT product was subjected to quantitative real-time PCR analysis. The primers and TaqMan probes for MAT2A, MAT2β and Universal PCR Master Mix were purchased from ABI (Foster City, Calif.). Hypoxanthine phosphoribosyl-transferase 1 (HPRT1) and ubiquitin C (UBC) were used as housekeeping genes (48). The thermal profile consisted of 1 cycle at 95° C. for 15 minutes followed by 40 cycles at 95° C. for 15 seconds and at 60° C. for 1 minute. The expression of MAT2A and MAT2β was checked by normalizing the Ct of MAT2A and MAT2β to that of the control housekeeping gene (HPRT1 or UBC) (49). The delta Ct obtained was used to find the relative expression of MAT genes according to the formula: Relative expression=2·^ΔCt, where ΔCt=ΔCt of MAT genes in colon cancer or treated cells—ΔCt of MAT genes in normal colon or control cells.

[4] = Tolerability of oral SAMe and MTA in mice; format: in vivo; conditions: oral in drinking water, 6 days; weight gain and water consumption similar to controls
Source text: SAMe and MTA were made fresh daily. The amount of water intake, body weight, and animal behavior were closely monitored. After 6 days, animals were sacrificed, intestine was cut open along the longitudinal axis, and mucosa was stripped from the intestine (46). Mucosa was weighed and a portion processed for SAMe measurement as described below, the rest snap frozen for subsequent RNA extraction.

Bcl-xS = Bcl-xS mRNA level in HT-29 cells; format: cell-based, human; conditions: 6 hrs
Procedure: SAMe and MTA induce apoptosis in liver cancer cells by the mitochondrial pathway (14). […] In liver cancer cells, SAMe and MTA induced selectively expression of Bcl-xs, a pro-apoptotic protein (67). We examined whether the same occurs in HT-29 cells. After 6 hrs of MTA (1 mM) treatment, Bcl-xL mRNA level fell by 53% (47±4% of control, results are mean±SE from 4 experiments, p<0.0005). […] This makes these agents particularly attractive in targeting colon cancer cells.

cFLIPL = assay: Colonic cFLIPL mRNA in mice fed SAMe or MTA; format: in vivo; conditions: oral, 6 days
Procedure: FIG. 30. Effects of oral SAMe and MTA on colonic mRNA levels of MAT2A, MAT2 β, and […]. Mice were fed SAMe (150 to 450 mg/kg/d) or MTA (75 or 150 mg/kg/d) in drinking water for 6 days. Colonic mucosa was scrapped off and gene expression measured by real-time PCR.

MAT2A [5] = assay: MAT2A expression in NCM460 cells; format: cell-based, human; conditions: 5 mM SAMe or 1 mM MTA, 6 hrs
Procedure: as §1
NCM460 cell line was originally established in 1996 as the first non-malignant colonic epithelial cell line derived from the transverse colon (43). When first developed, cells formed both monolayer and in suspension, express villin and cytokeratin staining (43). […] The NCM460 cells in monolayer have features of transverse colon crypt cells (69). […]

For `C[S+](CC[C@H](N)C(=O)O)C[C@H]1O[C@@H](n2cnc3c(N)ncnc32)[C@H](O)[C@@H]1O` (stereo partly shown) [SAMe, S-adenosylmethionine], the ODC expression ([1]; SAMe 2 mM) was 1.1 ± 0.07 fold of control, the ODC expression ([1]; SAMe 5 mM) was 0.8 ± 0.04 fold of control and the “SAMe level in proximal small intestine” value [2] was 800 % of control. The “increase in SAMe level in colonic mucosa” value [2] was roughly 200%, the “Inhibition by SAMe” value (MAT II; MAT II) was “Yes” and the IC50 (MAT II; read-out: IC50, inhibition of MAT II) was 60 µM. For the same compound, the “Inhibition by SAMe” value (MAT I; MAT I) was “No”, the IC50 (MAT I; read-out: IC50, inhibition of MAT I) was 400 µM and the MAT2A expression (MAT2A [3]; 0.5 mM SAMe) was 81 % baseline. For the same compound, the MAT2A expression (MAT2A [3]; 1 mM SAMe) was 65 % baseline, the MAT2A expression (MAT2A [3]; 2 mM SAMe) was 55 % baseline and the MAT2A expression (MAT2A [3]; 5 mM SAMe) was 38 % of baseline. The “reduction of baseline expression of MAT2A” value (MAT2A [3]; SAMe 5 mM or MTA 1 mM, 6 hrs, HT29 cells) was 60%, the “IGF-1-mediated induction of MAT2A on co-treatment” value (MAT2A [3]; co-treatment 3 hrs) was “blunted the IGF-1-mediated induction of MAT2A” and the “leptin- or EGF-induced MAT2A expression on co-treatment” value (MAT2A [3]; co-treatment with leptin (6 hrs) or EGF (3 hrs)) was “prevented the ability of these growth factors to induce MAT2A”. For the same compound, the tolerability / toxicity [4] was “well tolerated; also recorded: no apparent toxicity”, the “Bcl-xS mRNA level” value (Bcl-xS) was “no effect on Bcl-xS mRNA level” and the cFLIPL expression (cFLIPL) was “inhibited cFLIPL expression”. The “reduction of MAT2A expression” value (MAT2A [5]) was 40%.
